One block for each compound: values may come before it. Active and inactive are the calls of the source.
Experiments:
[1] = target: T1, Small ubiquitin-related modifier 1 (Homo sapiens, UniProt P63165); experiment: inhibitors of SUMO1 peptide binding, dose response, biochemical, fluorescence polarization, uHTS hits (AID 624382); format: functional; settings: read-out: IC50_Mean
[2] = target: T1, Small ubiquitin-related modifier 1; experiment: inhibitors of SUMO1 partner interactions, dose response, biochemical, FRET (AID 624383); format: functional; settings: read-out: IC50_Mean
[3] = target: SWI/SNF-related matrix-associated actin-dependent regulator of chromatin subfamily A member 2 (Homo sapiens, UniProt P51531); experiment: Luminescence-based cell-based high throughput dose response assay to identify activators of the function of SWI/SNF related, matrix associated, actin dependent regulator of chromatin, subfamily a, member 2 (SMARCA2, BRM).; format: functional
SWI/SNF-related matrix-associated actin-dependent regulator of chromatin subfamily A member 2, sequence (P51531 whole entry): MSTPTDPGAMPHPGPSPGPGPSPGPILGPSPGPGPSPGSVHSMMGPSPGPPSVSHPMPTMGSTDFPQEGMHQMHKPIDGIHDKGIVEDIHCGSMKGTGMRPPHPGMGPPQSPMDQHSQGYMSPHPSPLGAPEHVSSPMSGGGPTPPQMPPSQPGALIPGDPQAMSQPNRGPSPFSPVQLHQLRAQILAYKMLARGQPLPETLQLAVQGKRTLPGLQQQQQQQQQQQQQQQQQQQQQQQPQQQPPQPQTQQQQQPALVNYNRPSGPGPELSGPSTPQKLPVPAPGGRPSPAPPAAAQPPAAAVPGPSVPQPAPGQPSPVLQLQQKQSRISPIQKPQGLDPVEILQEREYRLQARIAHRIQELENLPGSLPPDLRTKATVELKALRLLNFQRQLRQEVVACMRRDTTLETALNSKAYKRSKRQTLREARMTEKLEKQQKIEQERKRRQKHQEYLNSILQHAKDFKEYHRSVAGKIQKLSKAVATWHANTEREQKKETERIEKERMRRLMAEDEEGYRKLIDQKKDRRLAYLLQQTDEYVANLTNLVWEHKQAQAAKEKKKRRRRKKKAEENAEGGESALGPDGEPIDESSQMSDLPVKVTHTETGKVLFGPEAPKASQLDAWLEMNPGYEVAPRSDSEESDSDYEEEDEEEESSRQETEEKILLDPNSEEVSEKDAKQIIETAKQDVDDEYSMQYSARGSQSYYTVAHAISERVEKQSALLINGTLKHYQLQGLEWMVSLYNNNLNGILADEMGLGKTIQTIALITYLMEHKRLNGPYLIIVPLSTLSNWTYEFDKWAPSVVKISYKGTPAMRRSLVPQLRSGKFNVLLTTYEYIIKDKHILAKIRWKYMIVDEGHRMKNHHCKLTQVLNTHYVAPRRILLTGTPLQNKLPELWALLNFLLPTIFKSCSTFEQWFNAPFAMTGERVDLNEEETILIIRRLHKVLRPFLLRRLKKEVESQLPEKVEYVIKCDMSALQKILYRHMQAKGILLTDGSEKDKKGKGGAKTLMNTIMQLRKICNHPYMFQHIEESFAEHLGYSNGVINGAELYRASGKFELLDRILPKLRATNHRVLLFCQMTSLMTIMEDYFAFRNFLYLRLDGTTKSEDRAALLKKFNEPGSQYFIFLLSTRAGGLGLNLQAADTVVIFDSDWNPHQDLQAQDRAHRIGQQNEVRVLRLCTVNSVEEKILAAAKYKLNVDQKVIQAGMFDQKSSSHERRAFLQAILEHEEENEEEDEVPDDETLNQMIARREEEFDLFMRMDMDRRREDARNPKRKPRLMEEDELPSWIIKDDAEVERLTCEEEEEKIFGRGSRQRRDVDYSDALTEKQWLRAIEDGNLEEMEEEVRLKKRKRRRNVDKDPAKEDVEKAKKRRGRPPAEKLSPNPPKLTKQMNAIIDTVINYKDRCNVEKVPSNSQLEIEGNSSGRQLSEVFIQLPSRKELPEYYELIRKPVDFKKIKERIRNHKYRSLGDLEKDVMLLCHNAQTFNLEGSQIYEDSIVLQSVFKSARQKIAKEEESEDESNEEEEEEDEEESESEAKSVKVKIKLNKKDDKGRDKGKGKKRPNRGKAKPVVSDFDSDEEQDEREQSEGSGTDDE

[4] = Counterscreen for activators of the function of SWI/SNF related, matrix associated, actin dependent regulator of chromatin, subfamily a, member 2 (SMARCA2, BRM): Luminescence-based cell-based high throughput dose response assay to identify non-selective compounds using the VP16 reporter assay.; format: functional
[5] = target: T2, Sentrin-specific protease 8 (Homo sapiens, UniProt Q96LD8); format: functional
T2 sequence (Q96LD8 whole entry): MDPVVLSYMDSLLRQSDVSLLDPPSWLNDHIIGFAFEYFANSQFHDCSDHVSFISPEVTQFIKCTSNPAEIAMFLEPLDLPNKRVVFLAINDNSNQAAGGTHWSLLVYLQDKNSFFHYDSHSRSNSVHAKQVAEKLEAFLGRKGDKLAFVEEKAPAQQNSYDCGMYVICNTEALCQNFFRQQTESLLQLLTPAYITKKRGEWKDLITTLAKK

[6] = target: T3, Caspase-3 (Homo sapiens, UniProt P42574); experiment: Dose-response confirmation of uHTS inhibitor hits of Sentrin-Specific Protease 8 in a Caspase-3 Fluorescence assay.; format: functional
T3 sequence (P42574 whole entry): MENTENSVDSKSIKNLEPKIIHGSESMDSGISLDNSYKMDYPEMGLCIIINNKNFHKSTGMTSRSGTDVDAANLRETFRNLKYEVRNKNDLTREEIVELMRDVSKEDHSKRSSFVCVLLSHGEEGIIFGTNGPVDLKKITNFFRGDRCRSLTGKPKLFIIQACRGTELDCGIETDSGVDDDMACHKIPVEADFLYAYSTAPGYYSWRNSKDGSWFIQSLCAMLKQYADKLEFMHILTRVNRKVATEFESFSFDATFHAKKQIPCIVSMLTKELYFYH

[7] = target: T2, Sentrin-specific protease 8; format: functional; remark: listed apart in the source
[8] = system: HEK293; experiment: HEK293T cell cytotoxicity, dose response, cytotoxicity control, ATP luminescence, cherry-pick samples (AID 687005); format: functional, cell-based; settings: Homo sapiens;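 also: cells exposed to compound for 48 hours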
[9] = system: Cryptococcus neoformans; experiment: PubChem AID 686997; format: functional, organism-based
[10] = system: Cryptococcus neoformans; experiment: Cryptococcus growth inhibition by alamar blue – cell lysis, cherry-picks, replicate tests, mechanism study for C. neoformans antifungal project, dose response (AID 686999); format: functional, organism-based
[11] = HEK293 Cytotoxicity Assay Measured in Cell-Based System Using Plate Reader - 7071-01_Inhibitor_Dose_CherryPick_Activity_Set2.; format: functional
[12] = system: HeLa; experiment: HeLa cell cytotoxicity, dose response, cytotoxicity control, ATP luminescence, cherry-pick samples (AID 687004); format: functional, cell-based
[13] = HEK293 cell viability, dose response, counter-screen for EBV LMP1 inhibitor project, dry powder, set 2 (AID 624374); format: functional
[14] = target: Paired box protein Pax-8 (Homo sapiens, UniProt Q06710); experiment: inhibitors of PAX8-driven TPO luciferase reporter, dose response, RMG-I cells, cherry-pick (AID 687027); format: functional, cell-based;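 also: luciferase reporter driven by Pax8 target thyroperoxidase promoter measured by SteadyGlo luminescence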
Paired box protein Pax-8, sequence (Q06710 whole entry): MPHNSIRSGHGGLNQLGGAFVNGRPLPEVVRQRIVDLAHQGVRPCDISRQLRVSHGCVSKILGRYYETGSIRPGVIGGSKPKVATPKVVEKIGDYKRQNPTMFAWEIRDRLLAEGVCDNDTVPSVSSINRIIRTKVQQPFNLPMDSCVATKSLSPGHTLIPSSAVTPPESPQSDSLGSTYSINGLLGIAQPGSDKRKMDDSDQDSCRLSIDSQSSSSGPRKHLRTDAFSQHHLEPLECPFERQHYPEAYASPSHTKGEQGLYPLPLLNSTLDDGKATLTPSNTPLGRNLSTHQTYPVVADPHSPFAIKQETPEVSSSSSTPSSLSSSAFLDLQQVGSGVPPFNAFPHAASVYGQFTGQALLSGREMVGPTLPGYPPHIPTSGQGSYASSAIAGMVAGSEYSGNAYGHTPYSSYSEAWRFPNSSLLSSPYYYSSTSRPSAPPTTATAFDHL

T1 sequence (P63165 whole entry): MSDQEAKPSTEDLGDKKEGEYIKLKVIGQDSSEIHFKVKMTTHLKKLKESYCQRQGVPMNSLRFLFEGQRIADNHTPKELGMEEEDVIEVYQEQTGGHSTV

Structure (SMILES): CCn1c(SCC(=O)NC(=O)NCc2ccco2)nc2sc(C)c(C)c2c1=O
- IC50 [1]: > 66.6 µM (inactive)
- IC50 [2]: 21.9 µM (inactive)

Structure (SMILES): COc1cccc(-c2cnc3c(NC=O)cc(-c4ccc(N5CCN(C)CC5)cc4)cn23)c1
- EC50 [3]: > 10.1 µM (inactive)
- EC50 [4]: > 91.2 µM (inactive)

- IC50 [6]: 9.26 µM (active)
Structure (SMILES): O=C(NC1CCCCC1)C(c1ccnc2ccccc12)N1CCc2ccccc2C1 (centres undefined)
- IC50 [5]: 2.31 µM (active)
- IC50 [7]: 17.5 µM (active)

Structure (SMILES): COC(=O)C1=C(C)N(CC(C)C)C(=S)NC1c1ccc(-c2ccccc2)cc1 (centres undefined)
- AC50 [8]: 20.4 µM (active)
- AC50 [9]: 23.6 µM (active)
- AC50 ([9]; Cryptococcus neoformans): 15.6 µM (active)
- AC50 [10]: 51.6 µM (active)
- AC50 [11]: 20.4 µM (active)
- AC50 [12]: > 52 µM (inactive)
- AC50 ([12]; Homo sapiens): 42 µM (active)

Structure (SMILES): O=C(Cc1ccccn1)NCC[C@@H]1CC[C@H](NC(=O)Nc2ccc(Cl)cc2)[C@H](CO)O1
- AbsAC35 [13]: 154.48 µM

Structure (SMILES): CC[C@H](C)[C@@H]1NC(=O)CNC(=O)c2csc(n2)[C@H](C(C)(C)O)OC(=O)C(C)(C)[C@H](CCCC(C)(Cl)Cl)OC(=O)c2csc1n2 [LYNGBYABELLIN A]
- AC50 ([9]; Cryptococcus neoformans): 2.72 µM (active)
- AC50 [10]: 2.1 µM (active)
- AC50 [14]: < 0.26 µM (active)
- AC50 ([12]; Homo sapiens): < 0.195 µM (active)

Reference: ChEMBL document CHEMBL1201862, “PubChem BioAssay data set” (2004)
